Data published in ChEMBL document CHEMBL2169775, “Tacrine-ferulic acid-nitric oxide (NO) donor trihybrids as potent, multifunctional acetyl- and butyrylcholinesterase inhibitors” (J Med Chem, 2012).
Calls of active or inactive are those of the source. No cut-off for these calls is given here.

What was measured:
[1] = target: Acetylcholinesterase (Electrophorus electricus) (UniProt O42275); assay: Mixed inhibition of eel AChE using acetylthiocholine iodide as substrate at 1 to 10 nM after 4 mins by Lineweaver-Burk plot analysis
Acetylcholinesterase (Electrophorus electricus), sequence (O42275 24-633 limits assumed): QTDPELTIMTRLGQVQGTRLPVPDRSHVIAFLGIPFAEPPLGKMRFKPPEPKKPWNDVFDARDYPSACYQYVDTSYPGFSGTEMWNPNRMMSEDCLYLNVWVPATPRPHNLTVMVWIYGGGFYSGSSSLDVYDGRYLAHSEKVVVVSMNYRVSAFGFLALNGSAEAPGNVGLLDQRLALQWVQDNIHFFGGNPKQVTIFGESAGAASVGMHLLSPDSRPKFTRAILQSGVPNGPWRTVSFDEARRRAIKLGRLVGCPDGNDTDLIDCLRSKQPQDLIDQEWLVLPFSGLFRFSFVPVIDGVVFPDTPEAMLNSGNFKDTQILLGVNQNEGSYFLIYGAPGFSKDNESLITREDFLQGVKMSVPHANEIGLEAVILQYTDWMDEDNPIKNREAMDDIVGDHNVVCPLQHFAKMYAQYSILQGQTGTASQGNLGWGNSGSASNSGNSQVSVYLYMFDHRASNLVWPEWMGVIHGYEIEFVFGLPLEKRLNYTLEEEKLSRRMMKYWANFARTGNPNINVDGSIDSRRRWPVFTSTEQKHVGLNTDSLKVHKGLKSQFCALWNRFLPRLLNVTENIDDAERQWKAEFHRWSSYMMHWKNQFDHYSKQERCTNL

[2] = Induction of NO release in phosphate buffer assessed as inorganic nitrite level at pH 7.4 at 10^-4 M measured at 10 mins by Griess assay in presence of L-cysteine; type: physicochemical; conditions: pH 7.4, 10 min, 100 µM
[3] = target: Cholinesterase (Equus caballus) (UniProt P81908); assay: Competitive inhibition of equine serum BuChE using butyrylthiocholine iodide as substrate at 1 to 10 nM after 4 mins by Ellman's method
Cholinesterase (Equus caballus), sequence (P81908 whole entry): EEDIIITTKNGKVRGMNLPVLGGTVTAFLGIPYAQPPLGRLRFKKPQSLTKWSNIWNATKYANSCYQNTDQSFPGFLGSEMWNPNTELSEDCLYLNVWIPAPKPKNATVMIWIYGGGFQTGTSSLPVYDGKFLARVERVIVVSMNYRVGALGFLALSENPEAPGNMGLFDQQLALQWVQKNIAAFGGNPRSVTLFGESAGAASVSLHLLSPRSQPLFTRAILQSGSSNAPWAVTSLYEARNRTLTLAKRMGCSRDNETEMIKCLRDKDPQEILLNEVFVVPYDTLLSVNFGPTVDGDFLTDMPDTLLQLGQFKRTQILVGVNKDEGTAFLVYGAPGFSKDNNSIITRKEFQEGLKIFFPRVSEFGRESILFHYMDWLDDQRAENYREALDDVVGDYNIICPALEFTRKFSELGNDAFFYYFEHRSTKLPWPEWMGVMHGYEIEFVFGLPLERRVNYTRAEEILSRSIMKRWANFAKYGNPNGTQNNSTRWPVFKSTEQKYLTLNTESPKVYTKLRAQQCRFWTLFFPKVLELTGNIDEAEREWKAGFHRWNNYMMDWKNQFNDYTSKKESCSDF

[4] = system: Radical scavenging activity; assay: Antioxidant activity assessed as DPPH free radical scavenging activity at 2 mM relative to ferulic acid; type: functional
Cholinesterase = Cholinesterase (Equus caballus, UniProt P81908)
Cholinesterase, sequence (P81908 whole entry): as above
Description: Inhibition of equine serum BuChE using butyrylthiocholine iodide as substrate after 5 mins by Ellman's method

Acetylcholinesterase = Acetylcholinesterase (Electrophorus electricus, UniProt O42275)
Acetylcholinesterase, sequence (O42275 whole entry): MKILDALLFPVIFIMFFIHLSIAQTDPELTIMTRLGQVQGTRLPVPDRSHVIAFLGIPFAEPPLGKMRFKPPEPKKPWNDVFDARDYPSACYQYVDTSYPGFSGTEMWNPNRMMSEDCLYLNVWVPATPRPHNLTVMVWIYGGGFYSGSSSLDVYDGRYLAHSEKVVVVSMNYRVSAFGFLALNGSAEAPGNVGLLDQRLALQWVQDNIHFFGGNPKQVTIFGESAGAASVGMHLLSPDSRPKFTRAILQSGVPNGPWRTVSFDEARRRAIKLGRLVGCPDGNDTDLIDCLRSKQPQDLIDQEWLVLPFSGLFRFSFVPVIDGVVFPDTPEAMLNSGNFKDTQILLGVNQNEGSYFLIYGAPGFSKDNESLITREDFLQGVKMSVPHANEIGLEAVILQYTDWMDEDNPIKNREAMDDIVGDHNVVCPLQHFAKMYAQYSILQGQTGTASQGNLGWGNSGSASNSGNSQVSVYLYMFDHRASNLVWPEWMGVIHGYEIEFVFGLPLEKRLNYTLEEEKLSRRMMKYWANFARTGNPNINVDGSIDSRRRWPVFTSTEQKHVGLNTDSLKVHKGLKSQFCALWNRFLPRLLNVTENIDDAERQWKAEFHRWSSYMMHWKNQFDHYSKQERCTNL
Description: Inhibition of eel AChE using acetylthiocholine iodide as substrate after 5 mins by Ellman's method

Aorta = assay: tissue or blood; conditions: Rattus norvegicus
Description: Vasorelaxant activity in rat aortic rings assessed as reduction of norepinephrine-induced contraction

[5] = Induction of NO release in phosphate buffer assessed as inorganic nitrite level at pH 7.4 at 10^-4 M measured at 30 mins by Griess assay in presence of L-cysteine; type: physicochemical; conditions: pH 7.4, 0.5 h, 100 µM

SMILES	inhibition [1]	Activity [2] [µg/mL]	inhibition [3]	Activity [4] [%]	IC50 (Cholinesterase) [µM]	IC50 (Acetylcholinesterase) [µM]	EC50 (Aorta) [µM]	Activity [5] [µg/mL]
COc1cc(/C=C/C(=O)NCCCNc2c3c(nc4ccccc24)CCCC3)ccc1OCCCO[N+](=O)[O-]	Active	0.241	Active	< 1	0.0177	0.0109	34.3	0.305
COc1cc(/C=C/C(=O)NCCCCCCNc2c3c(nc4ccccc24)CCCC3)ccc1O	–	–	–	64.7	0.0263	0.0127	–	–
NCCNc1c2c(nc3ccccc13)CCCC2	–	–	–	–	0.0309	0.0714	–	–
COc1cc(/C=C/C(=O)NCCCCNc2c3c(nc4ccccc24)CCCC3)ccc1OCCO[N+](=O)[O-]	–	–	–	< 1	0.0202	0.0221	–	–
NCCCCCCNc1c2c(nc3ccccc13)CCCC2	–	–	–	–	0.0066	0.0237	–	–
COc1cc(/C=C/C(=O)NCCNc2c3c(nc4ccccc24)CCCC3)ccc1OCCCCO[N+](=O)[O-]	–	–	–	< 1	0.0076	0.0271	–	–
CCCOc1ccc(/C=C/C(=O)NCCCNc2c3c(nc4ccccc24)CCCC3)cc1OC	–	–	–	–	0.0403	0.0698	838	–
COc1cc(/C=C/C(=O)NCCCNc2c3c(nc4ccccc24)CCCC3)ccc1OCCCCO[N+](=O)[O-]	–	–	–	< 1	0.0062	0.0036	–	–
COc1cc(/C=C/C(=O)O)ccc1OCCCCO[N+](=O)[O-]	–	–	–	–	> 10	> 10	–	–
COc1cc(/C=C/C(=O)NCCCCCCCCNc2c3c(nc4ccccc24)CCCC3)ccc1OCCCO[N+](=O)[O-]	–	–	–	< 1	0.001	0.0101	–	–
COc1cc(/C=C/C(=O)NCCCNc2c3c(nc4ccccc24)CCCC3)ccc1O	–	–	–	–	0.0311	0.0567	2050	–
COc1cc(/C=C/C(=O)O)ccc1OCCCCCCO[N+](=O)[O-]	–	–	–	–	> 10	> 10	–	–
COc1cc(/C=C/C(=O)NCCCCNc2c3c(nc4ccccc24)CCCC3)ccc1OCCCCCCO[N+](=O)[O-]	–	–	–	< 1	0.0117	0.0279	–	–
NCCCNc1c2c(nc3ccccc13)CCCC2	–	–	–	–	0.0197	0.0795	–	–
COc1cc(/C=C/C(=O)NCCCCNc2c3c(nc4ccccc24)CCCC3)ccc1O	–	–	–	–	0.0098	0.0111	–	–
NCCCCNc1c2c(nc3ccccc13)CCCC2	–	–	–	–	0.0229	0.0393	–	–
COc1cc(/C=C/C(=O)NCCCCCCCCNc2c3c(nc4ccccc24)CCCC3)ccc1OCCCCCCO[N+](=O)[O-]	–	–	–	< 1	0.0019	0.0108	–	–
COc1cc(/C=C/C(=O)NCCCCCCNc2c3c(nc4ccccc24)CCCC3)ccc1OCCO[N+](=O)[O-]	–	–	–	< 1	0.0052	0.0083	–	–

SMILES	inhibition [1]	Activity [2] [µg/mL]	inhibition [3]	Activity [4] [%]	IC50 (Cholinesterase) [µM]	IC50 (Acetylcholinesterase) [µM]	EC50 (Aorta) [µM]	Activity [5] [µg/mL]
COc1cc(/C=C/C(=O)NCCCCCCNc2c3c(nc4ccccc24)CCCC3)ccc1OCCCCCCO[N+](=O)[O-]	–	–	–	< 1	0.002	0.0048	–	–
O=[N+]([O-])O[C@H]1CO[C@H]2[C@@H]1OC[C@H]2O[N+](=O)[O-] [ISOSORBIDE DINITRATE]	–	–	–	–	–	–	25.2	–
COc1cc(/C=C/C(=O)O)ccc1OCCCO[N+](=O)[O-]	–	–	–	–	> 10	> 10	–	–
COc1cc(/C=C/C(=O)NCCCCCCCCNc2c3c(nc4ccccc24)CCCC3)ccc1O	–	–	–	–	0.0274	0.0169	–	–
COc1cc(/C=C/C(=O)NCCCCNc2c3c(nc4ccccc24)CCCC3)ccc1OCCCCO[N+](=O)[O-]	–	–	–	< 1	0.0047	0.0195	–	–
COc1cc(/C=C/C(=O)NCCCCCCNc2c3c(nc4ccccc24)CCCC3)ccc1OCCCO[N+](=O)[O-]	–	–	–	< 1	0.0056	0.0044	–	–
COc1cc(/C=C/C(=O)NCCCCCCCCNc2c3c(nc4ccccc24)CCCC3)ccc1OCCO[N+](=O)[O-]	–	0.145	–	< 1	0.0016	0.0055	234	0.275
COc1cc(/C=C/C(=O)NCCNc2c3c(nc4ccccc24)CCCC3)ccc1O	–	–	–	–	0.0375	0.062	–	–
COc1cc(/C=C/C(=O)NCCCCNc2c3c(nc4ccccc24)CCCC3)ccc1OCCCO[N+](=O)[O-]	–	–	–	< 1	0.0236	0.0443	–	–
COc1cc(/C=C/C(=O)O)ccc1OCCO[N+](=O)[O-]	–	–	–	–	> 10	> 10	–	–
COc1cc(/C=C/C(=O)NCCNc2c3c(nc4ccccc24)CCCC3)ccc1OCCO[N+](=O)[O-]	–	–	–	< 1	0.0105	0.0172	48.8	–
COc1cc(/C=C/C(=O)NCCCNc2c3c(nc4ccccc24)CCCC3)ccc1OCCCCCCO[N+](=O)[O-]	–	–	–	< 1	0.0193	0.0218	–	–
COc1cc(/C=C/C(=O)NCCCNc2c3c(nc4ccccc24)CCCC3)ccc1OCCO[N+](=O)[O-]	–	–	–	< 1	0.0249	0.0144	–	–
COc1cc(/C=C/C(=O)NCCNc2c3c(nc4ccccc24)CCCC3)ccc1OCCCCCCO[N+](=O)[O-]	–	–	–	< 1	0.0218	0.0406	–	–
NCCCCCCCCNc1c2c(nc3ccccc13)CCCC2	–	–	–	–	0.0028	0.0029	–	–
COc1cc(/C=C/C(=O)NCCCCCCNc2c3c(nc4ccccc24)CCCC3)ccc1OCCCCO[N+](=O)[O-]	–	–	–	< 1	0.0014	0.0037	–	–
COc1cc(/C=C/C(=O)NCCCCCCCCNc2c3c(nc4ccccc24)CCCC3)ccc1OCCCCO[N+](=O)[O-]	–	–	–	< 1	0.0018	0.0094	–	–
COc1cc(/C=C/C(=O)NCCNc2c3c(nc4ccccc24)CCCC3)ccc1OCCCO[N+](=O)[O-]	–	–	–	< 1	0.0084	0.0199	–	–
